Experimental data reported in US5427766A, “Radiolabeled steroids for use in radiochemical-guided surgery” (priority 1993, dated 1995).

Key:
Design in all cases: species or system athymic female NCR-Nu Mice
[1] = system: MCF-7(ER+) breast tumor xenografts; assay: In vivo biolocalization with gamma detecting probe, tumor/background ratio, MCF-7 (ER+) tumor; settings: for Tumor/Background Ratio (Tu/Bkg): MCF-7 tumor, foreleg background, n = 5
Description: (§1) In vivo biolocalization of 11β-ethyl-17α-(Z)-[^125 I](iodovinyl)estra-3,17β-diol (5) and a control compound 16α-[^125 I](iodovinyl)-3,17β-estradiol was determined in athymic female NCR-Nu Mice bearing subcutaneous MCF-7(ER+) breast tumor xenografts and MDA-MB-231 (ER-) breast tumor xenografts. The mice were at least 5 weeks old prior to injection into the right-hand flank with […] of MCF-7 breast carcinoma cells ([…]). One day prior to this procedure, the mice were implanted subcutaneously with a 1.7 mg estradiol pellet in the scapular region. Four to six weeks post-injection of the MCF-7 cells the estradiol pellet was removed and the mice inoculated in the left hind flank with 75 μL NDA-MB-231 breast tumor cells ([…]). Seven to ten days prior to injection of the test compounds, an estradiol pellet was again implanted in the scapular region. One to two days prior to injection of the test compounds, the estradiol pellet was removed, and 5 mice arbitrarily assigned to each test group.
(§2) The mice were each injected via tail vein with between 3 ([…]) and […] ([…]) 125 iodine in approximately […] of phosphate-buffered saline. At various time intervals after injection of the test compounds, each group of mice was anesthetized with methoxyflurane in order to measure the radioactivity over the ER+ and ER- tumors and the front leg for use as a background and the thoraxic area which served as a blood pool control using a gamma detecting probe (RIGS ^TM Model 1001 control unit, Neoprobe Corporation, Columbus, Ohio). Three 20 to 60 second counts were recorded at each area measured at each time point.
(§3) ^c Tu/Bkg = Mean(1-5) of (mean tumor countsn - mean foreleg
(§4) background countsn)/mean foreleg background

[2] = system: MDA-MB-231 (ER-) breast tumor xenografts; assay: In vivo biolocalization with gamma detecting probe, tumor/background ratio, MDA-MB-231 (ER-) tumor; settings: MDA-MB-231 tumor, foreleg background, n = 5
Description: as §1, §2, §3, §4

[3] = system: MCF-7 tumors located intraperitoneally; assay: In vivo localization (biodistribution) in athymic female nude mice bearing intraperitoneal MCF-7 tumors; settings: for Percent Injected Dose/Gram, blood / Percent Injected Dose/Gram, fat / Percent Injected Dose/Gram, kidney / Percent Injected Dose/Gram, liver / Percent Injected Dose/Gram, muscle / Percent Injected Dose/Gram, spleen / Percent Injected Dose/Gram, tumor / Percent Injected Dose/Gram, uteri: tail vein, intraperitoneal MCF-7, mean, n = 5
Description: (§5) In vivo localization of 11β-ethyl-17α-(Z)-[^125 I](iodovinyl)estra-3,17β-diol (5) and a control compound 16α-[^125 I]iodovinyl-3,17β-estradiol (commercially available from DuPont New England Nuclear, MA) was determined in athymic female NCR-Nu Mice (purchased from Simonsen Laboratories, Gilroy, Calif.) bearing subcutaneous MCF-7(ER+) breast tumor xenografts. Prior to injection of the compounds, the mice were each implanted with fragments of MCF-7 breast tumor (approximately 2 cubic millimeters) in the subcutis of the left flank. At approximately the same time, a 1.7 mg estradiol pellet (Innovative Research of America, Toledo, Ohio) was implanted in the scapular region. The tumors were allowed to grow until they reached between 50 and 200 mg by visual inspection (approximately four to five weeks) prior to injection of the test compounds. One day prior to injection of the test compounds, the estradiol pellet was removed.
(§6) The mice were each injected via tail vein with between 3 (1.1×10^5 Bq) and 6 μCi ([…]) ^125 I in approximately 50 μL of phosphate buffered saline. The mice were sacrificed at various time intervals. After exsanguination, the selected organ/tissue were excised, weighed and radioactivity measured in a gamma counter. The counts per minute (cpm) of 125I in each tissue was determined and expressed as cpm per gram of tissue per injected dose multiplied by 100 (percent injected dose/gram).
The procedure of Example 3 was followed except each mouse was inoculated intraperitoneally with MCF-7 breast carcinoma cell line (7.5×10^6 cell/50 μL) rather than implanted subcutaneously with MCF-7 breast tumor. One day prior to this procedure, a 1.7 mg estradiol pellet was implanted subcutaneously in the scapular region. The tumor cells were allowed to form solid tumor nodules for 4 to 6 weeks prior to injection of the test compounds.

[4] = system: MCF-7(ER+) breast tumor xenografts; assay: In vivo localization (biodistribution) in athymic female nude mice bearing subcutaneous MCF-7 tumor xenografts; settings: for Percent Injected Dose/Gram, blood / Percent Injected Dose/Gram, fat / Percent Injected Dose/Gram, kidney / Percent Injected Dose/Gram, liver / Percent Injected Dose/Gram, muscle / Percent Injected Dose/Gram, spleen / Percent Injected Dose/Gram, tumor / Percent Injected Dose/Gram, uteri: tail vein, subcutaneous MCF-7, mean, n = 5
Description: as §5, §6

C[C@]12CC[C@@H]3c4ccc(O)cc4CC[C@H]3[C@@H]1C[C@@H]([125I])[C@@H]2O [16α-Iodo-[^125 I]-3,17β-Estradiol]
Tumor/Background Ratio (Tu/Bkg) ([1]; 10-12 hours): 4.46 ± 1.44 | Tumor/Background Ratio (Tu/Bkg) ([1]; 2 hours): 12.73 | Tumor/Background Ratio (Tu/Bkg) ([1]; 6 hours): 9.58 ± 4.69 | Tumor/Background Ratio (Tu/Bkg) ([1]; 24 hours): 1.13 ± 0.16 | Tumor/Background Ratio (Tu/Bkg) ([1]; 48 hours): 0.13 ± 0.08 | tumor to background ratios / localization at the tumor site (in words) ([1]; after 10 to 12 hours): not being maintained or localized at the tumor site | tumor to background ratios (in words) ([1]; at 10 to 12 hours): good tumor to background ratios | Tumor/Background Ratio (Tu/Bkg) ([2]; 10-12 hours): 2.51 ± 1.40 | Tumor/Background Ratio (Tu/Bkg) ([2]; 2 hours): 10.96 | Tumor/Background Ratio (Tu/Bkg) ([2]; 6 hours): 6.23 ± 3.02 | Tumor/Background Ratio (Tu/Bkg) ([2]; 24 hours): 0.85 ± 0.29 | Tumor/Background Ratio (Tu/Bkg) ([2]; 48 hours): 0.08 ± 0.19 | radioactivity in the uteri and tumors ([3]; 48 hours post-injection, uteri and tumors, intraperitoneal MCF-7): no radioactivity defected | Percent Injected Dose/Gram, blood ([3]; 10-12 hours): 0.50 Percent Injected Dose/Gram | Percent Injected Dose/Gram, blood ([3]; 2 hours): 0.84 Percent Injected Dose/Gram | Percent Injected Dose/Gram, blood ([3]; 6 hours): 0.74 Percent Injected Dose/Gram | Percent Injected Dose/Gram, blood ([3]; 24 hours): 0.06 Percent Injected Dose/Gram | Percent Injected Dose/Gram, blood ([3]; 48 hours): 0.03 Percent Injected Dose/Gram | Percent Injected Dose/Gram, fat ([3]; 10-12 hours): 0.01 Percent Injected Dose/Gram | Percent Injected Dose/Gram, fat ([3]; 2 hours): 0.92 Percent Injected Dose/Gram | Percent Injected Dose/Gram, fat ([3]; 6 hours): 0.14 Percent Injected Dose/Gram | Percent Injected Dose/Gram, fat ([3]; 24 hours): 0.00 Percent Injected Dose/Gram | Percent Injected Dose/Gram, fat ([3]; 48 hours): 0.00 Percent Injected Dose/Gram | Percent Injected Dose/Gram, kidney ([3]; 10-12 hours): 0.24 Percent Injected Dose/Gram | Percent Injected Dose/Gram, kidney ([3]; 2 hours): 0.83 Percent Injected Dose/Gram | Percent Injected Dose/Gram, kidney ([3]; 6 hours): 0.41 Percent Injected Dose/Gram | Percent Injected Dose/Gram, kidney ([3]; 24 hours): 0.03 Percent Injected Dose/Gram | Percent Injected Dose/Gram, kidney ([3]; 48 hours): 0.00 Percent Injected Dose/Gram | Percent Injected Dose/Gram, liver ([3]; 10-12 hours): 0.84 Percent Injected Dose/Gram | Percent Injected Dose/Gram, liver ([3]; 2 hours): 6.54 Percent Injected Dose/Gram | Percent Injected Dose/Gram, liver ([3]; 6 hours): 5.37 Percent Injected Dose/Gram | Percent Injected Dose/Gram, liver ([3]; 24 hours): 0.15 Percent Injected Dose/Gram | Percent Injected Dose/Gram, liver ([3]; 48 hours): 0.08 Percent Injected Dose/Gram | Percent Injected Dose/Gram, muscle ([3]; 10-12 hours): 0.00 Percent Injected Dose/Gram | Percent Injected Dose/Gram, muscle ([3]; 2 hours): 0.12 Percent Injected Dose/Gram | Percent Injected Dose/Gram, muscle ([3]; 6 hours): 0.07 Percent Injected Dose/Gram | Percent Injected Dose/Gram, muscle ([3]; 24 hours): 0.00 Percent Injected Dose/Gram | Percent Injected Dose/Gram, muscle ([3]; 48 hours): 0.00 Percent Injected Dose/Gram | Percent Injected Dose/Gram, spleen ([3]; 10-12 hours): 0.15 Percent Injected Dose/Gram | Percent Injected Dose/Gram, spleen ([3]; 2 hours): 0.34 Percent Injected Dose/Gram | Percent Injected Dose/Gram, spleen ([3]; 6 hours): 0.36 Percent Injected Dose/Gram | Percent Injected Dose/Gram, spleen ([3]; 24 hours): 0.01 Percent Injected Dose/Gram | Percent Injected Dose/Gram, spleen ([3]; 48 hours): 0.00 Percent Injected Dose/Gram | Percent Injected Dose/Gram, tumor ([3]; 10-12 hours): 0.40 Percent Injected Dose/Gram | Percent Injected Dose/Gram, tumor ([3]; 2 hours): 1.35 Percent Injected Dose/Gram | Percent Injected Dose/Gram, tumor ([3]; 6 hours): 0.75 Percent Injected Dose/Gram | Percent Injected Dose/Gram, tumor ([3]; 24 hours): 0.02 Percent Injected Dose/Gram | Percent Injected Dose/Gram, tumor ([3]; 48 hours): 0.00 Percent Injected Dose/Gram | Percent Injected Dose/Gram, uteri ([3]; 10-12 hours): 0.45 Percent Injected Dose/Gram | Percent Injected Dose/Gram, uteri ([3]; 2 hours): 2.89 Percent Injected Dose/Gram | Percent Injected Dose/Gram, uteri ([3]; 6 hours): 1.09 Percent Injected Dose/Gram | Percent Injected Dose/Gram, uteri ([3]; 24 hours): 0.02 Percent Injected Dose/Gram | Percent Injected Dose/Gram, uteri ([3]; 48 hours): 0.00 Percent Injected Dose/Gram | radioactivity in the uteri and tumors ([4]; 48 hours post-injection, uteri and tumors, subcutaneous MCF-7): no radioactivity defected | Percent Injected Dose/Gram, blood ([4]; 10-12 hours): 0.16 Percent Injected Dose/Gram | Percent Injected Dose/Gram, blood ([4]; 2 hours): 0.59 Percent Injected Dose/Gram | Percent Injected Dose/Gram, blood ([4]; 6 hours): 0.58 Percent Injected Dose/Gram | Percent Injected Dose/Gram, blood ([4]; 24 hours): 0.03 Percent Injected Dose/Gram | Percent Injected Dose/Gram, blood ([4]; 48 hours): 0.01 Percent Injected Dose/Gram | Percent Injected Dose/Gram, fat ([4]; 10-12 hours): 0.00 Percent Injected Dose/Gram | Percent Injected Dose/Gram, fat ([4]; 2 hours): 0.88 Percent Injected Dose/Gram | Percent Injected Dose/Gram, fat ([4]; 6 hours): 0.25 Percent Injected Dose/Gram | Percent Injected Dose/Gram, fat ([4]; 24 hours): 0.00 Percent Injected Dose/Gram | Percent Injected Dose/Gram, fat ([4]; 48 hours): 0.00 Percent Injected Dose/Gram | Percent Injected Dose/Gram, kidney ([4]; 10-12 hours): 0.10 Percent Injected Dose/Gram | Percent Injected Dose/Gram, kidney ([4]; 2 hours): 0.64 Percent Injected Dose/Gram | Percent Injected Dose/Gram, kidney ([4]; 6 hours): 0.37 Percent Injected Dose/Gram | Percent Injected Dose/Gram, kidney ([4]; 24 hours): 0.00 Percent Injected Dose/Gram | Percent Injected Dose/Gram, kidney ([4]; 48 hours): 0.00 Percent Injected Dose/Gram | Percent Injected Dose/Gram, liver ([4]; 10-12 hours): 0.55 Percent Injected Dose/Gram | Percent Injected Dose/Gram, liver ([4]; 2 hours): 3.33 Percent Injected Dose/Gram | Percent Injected Dose/Gram, liver ([4]; 6 hours): 1.93 Percent Injected Dose/Gram | Percent Injected Dose/Gram, liver ([4]; 24 hours): 0.09 Percent Injected Dose/Gram | Percent Injected Dose/Gram, liver ([4]; 48 hours): 0.06 Percent Injected Dose/Gram | Percent Injected Dose/Gram, muscle ([4]; 10-12 hours): 0.00 Percent Injected Dose/Gram | Percent Injected Dose/Gram, muscle ([4]; 2 hours): 0.07 Percent Injected Dose/Gram | Percent Injected Dose/Gram, muscle ([4]; 6 hours): 0.05 Percent Injected Dose/Gram | Percent Injected Dose/Gram, muscle ([4]; 24 hours): 0.00 Percent Injected Dose/Gram | Percent Injected Dose/Gram, muscle ([4]; 48 hours): 0.00 Percent Injected Dose/Gram | Percent Injected Dose/Gram, spleen ([4]; 10-12 hours): 0.05 Percent Injected Dose/Gram | Percent Injected Dose/Gram, spleen ([4]; 2 hours): 0.28 Percent Injected Dose/Gram | Percent Injected Dose/Gram, spleen ([4]; 6 hours): 0.25 Percent Injected Dose/Gram | Percent Injected Dose/Gram, spleen ([4]; 24 hours): 0.00 Percent Injected Dose/Gram | Percent Injected Dose/Gram, spleen ([4]; 48 hours): 0.00 Percent Injected Dose/Gram | Percent Injected Dose/Gram, tumor ([4]; 10-12 hours): 0.09 Percent Injected Dose/Gram | Percent Injected Dose/Gram, tumor ([4]; 2 hours): 0.91 Percent Injected Dose/Gram | Percent Injected Dose/Gram, tumor ([4]; 6 hours): 0.41 Percent Injected Dose/Gram | Percent Injected Dose/Gram, tumor ([4]; 24 hours): 0.00 Percent Injected Dose/Gram | Percent Injected Dose/Gram, tumor ([4]; 48 hours): 0.00 Percent Injected Dose/Gram | Percent Injected Dose/Gram, uteri ([4]; 10-12 hours): 0.38 Percent Injected Dose/Gram | Percent Injected Dose/Gram, uteri ([4]; 2 hours): 2.81 Percent Injected Dose/Gram | Percent Injected Dose/Gram, uteri ([4]; 6 hours): 1.02 Percent Injected Dose/Gram | Percent Injected Dose/Gram, uteri ([4]; 24 hours): 0.02 Percent Injected Dose/Gram | Percent Injected Dose/Gram, uteri ([4]; 48 hours): 0.00 Percent Injected Dose/Gram
